Experimental data taken from PubChem BioAssay AID2060882 (Molecular Pharmacology Branch, DTP, NCI, 2025).

Tested on: 898857-211-R-J1-PDC complex spheroids, growth % test/control
Experiment: Anticancer human tumor 898857-211-R-J1-PDC patient-derived melanoma cell line growth inhibition [RAS]
Settings: for IC50: curve of first compound; for viability, T/C: stronger effect = lower value
Method in brief: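 Multi-cell-type spheroids: tumor cells plus HUVEC endothelial cells and mesenchymal stem cells. RAS-pathway inhibitors were combined with targeted agents, each dosed in half-log steps down from clinical Cmax, or from 10 microM when Cmax was unknown.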

[1] = second compound 0.00316 µM, first compound 0.0316 µM
[2] = second compound 0.00316 µM, first compound 0.1 µM
[3] = second compound 0.00316 µM, first compound 0.316 µM
[4] = second compound 0.00316 µM, first compound 1 µM
[5] = second compound 0.01 µM, first compound 0.0316 µM
[6] = second compound 0.01 µM, first compound 0.1 µM
[7] = second compound 0.01 µM, first compound 0.316 µM
[8] = second compound 0.01 µM, first compound 1 µM
[9] = second compound 0.0316 µM, first compound 0.0316 µM
[10] = second compound 0.0316 µM, first compound 0.1 µM
[11] = second compound 0.0316 µM, first compound 0.316 µM
[12] = second compound 0.0316 µM, first compound 1 µM
[13] = second compound 0.1 µM, first compound 0.0316 µM
[14] = second compound 0.1 µM, first compound 0.1 µM
[15] = second compound 0.1 µM, first compound 0.316 µM
[16] = second compound 0.1 µM, first compound 1 µM
[17] = second compound 0.316 µM, first compound 0.0316 µM
[18] = second compound 0.316 µM, first compound 0.1 µM
[19] = second compound 0.316 µM, first compound 0.316 µM
[20] = second compound 0.316 µM, first compound 1 µM
[21] = second compound 1 µM, first compound 0.0316 µM
[22] = second compound 1 µM, first compound 0.1 µM
[23] = second compound 1 µM, first compound 0.316 µM
[24] = second compound 1 µM, first compound 1 µM
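Note: spheroids exposed to compound for seven days before readout.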
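Throughout, for viability, T/C: 100% = DMSO vehicle control wells.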

`CC(Nc1ccc2c(c1)OCCn1cc(N3C(=O)OCC3C(F)F)nc1-2)C(N)=O` (centres undefined) + C=CC(=O)N1CCN(c2nc(OCC3CCCN3C)nc3c(F)c(-c4nc(N)cc(C)c4C(F)(F)F)c(Cl)cc23)C(C)C1 gave an IC50 (second compound 0.00316 µM) of over 10000 nM, an IC50 (second compound 0.01 µM) of over 10000 nM and an IC50 (second compound 0.0316 µM) of over 10000 nM. It also gave an IC50 (second compound 0.1 µM) of over 10000 nM, an IC50 (second compound 0.316 µM) of over 10000 nM and an IC50 (second compound 1 µM) of over 10000 nM. It also gave a viability, T/C [1] of 106%, a viability, T/C [2] of 91.2% and a viability, T/C [3] of 98.7%. The viability, T/C [4] was 93.9%, the viability, T/C (second compound 0.00316 µM, first compound 3.16 µM) was 94.8% and the viability, T/C (second compound 0.00316 µM, first compound 10 µM) was 72.8%. It also gave a viability, T/C [5] of 94.7%, a viability, T/C [6] of 103% and a viability, T/C [7] of 93.9%. For the same compound, the viability, T/C [8] was 87.6%, the viability, T/C (second compound 0.01 µM, first compound 3.16 µM) was 95.6% and the viability, T/C (second compound 0.01 µM, first compound 10 µM) was 71.4%. The viability, T/C [9] was 108%, the viability, T/C [10] was 103% and the viability, T/C [11] was 98.7%. For the same compound, the viability, T/C [12] was 91.9%, the viability, T/C (second compound 0.0316 µM, first compound 3.16 µM) was 81.8% and the viability, T/C (second compound 0.0316 µM, first compound 10 µM) was 75.7%. The viability, T/C [13] was 99.8%, the viability, T/C [14] was 105% and the viability, T/C [15] was 107%. It also gave a viability, T/C [16] of 99.1%, a viability, T/C (second compound 0.1 µM, first compound 3.16 µM) of 87.9% and a viability, T/C (second compound 0.1 µM, first compound 10 µM) of 74.5%. It also gave a viability, T/C [17] of 118%, a viability, T/C [18] of 120% and a viability, T/C [19] of 108%. For the same compound, the viability, T/C [20] was 97%, the viability, T/C (second compound 0.316 µM, first compound 3.16 µM) was 94.4% and the viability, T/C (second compound 0.316 µM, first compound 10 µM) was 70.1%. The viability, T/C [21] was 113%, the viability, T/C [22] was 124% and the viability, T/C [23] was 102%. The viability, T/C [24] was 111%, the viability, T/C (second compound 1 µM, first compound 3.16 µM) was 90.1% and the viability, T/C (second compound 1 µM, first compound 10 µM) was 71.4%.

In the case of `O=C(c1ccc(F)c(F)c1Nc1ccc(I)cc1F)N1CC(O)([C@@H]2CCCCN2)C1` + C=CC(=O)N1CCN(c2nc(OCC3CCCN3C)nc3c(F)c(-c4nc(N)cc(C)c4C(F)(F)F)c(Cl)cc23)C(C)C1, the IC50 (second compound 0.00316 µM) is reported as 5.18 nM, the IC50 (second compound 0.01 µM) is reported as 3.43 nM and the IC50 (second compound 0.0316 µM) is reported as 4.61 nM. It also gave an IC50 (second compound 0.1 µM) of 5.75 nM, an IC50 (second compound 0.316 µM) of 6.85 nM and an IC50 (second compound 1 µM) of 8.71 nM. For the same compound, the viability, T/C (second compound 0.00316 µM, first compound 0.00316 µM) was 60.9%, the viability, T/C (second compound 0.00316 µM, first compound 0.01 µM) was 33.6% and the viability, T/C [1] was 28.4%. For the same compound, the viability, T/C [2] was 21.8%, the viability, T/C [3] was 18.9% and the viability, T/C [4] was 16.4%. The viability, T/C (second compound 0.01 µM, first compound 0.00316 µM) was 50.9%, the viability, T/C (second compound 0.01 µM, first compound 0.01 µM) was 38.3% and the viability, T/C [5] was 26.4%. The viability, T/C [6] was 19.6%, the viability, T/C [7] was 15.8% and the viability, T/C [8] was 16%. The viability, T/C (second compound 0.0316 µM, first compound 0.00316 µM) was 56.3%, the viability, T/C (second compound 0.0316 µM, first compound 0.01 µM) was 38% and the viability, T/C [9] was 23.6%. The viability, T/C [10] was 23.6%, the viability, T/C [11] was 19.1% and the viability, T/C [12] was 15.3%. It also gave a viability, T/C (second compound 0.1 µM, first compound 0.00316 µM) of 60.6%, a viability, T/C (second compound 0.1 µM, first compound 0.01 µM) of 39.7% and a viability, T/C [13] of 28%. For the same compound, the viability, T/C [14] was 21.5%, the viability, T/C [15] was 17.6% and the viability, T/C [16] was 14%. For the same compound, the viability, T/C (second compound 0.316 µM, first compound 0.00316 µM) was 58.1%, the viability, T/C (second compound 0.316 µM, first compound 0.01 µM) was 46.9% and the viability, T/C [17] was 33.4%. For the same compound, the viability, T/C [18] was 25.4%, the viability, T/C [19] was 19.1% and the viability, T/C [20] was 14.4%. It also gave a viability, T/C (second compound 1 µM, first compound 0.00316 µM) of 73.2%, a viability, T/C (second compound 1 µM, first compound 0.01 µM) of 40.8% and a viability, T/C [21] of 38.6%. For the same compound, the viability, T/C [22] was 23.5%, the viability, T/C [23] was 18.1% and the viability, T/C [24] was 14.5%.
